In paper PMC12591484 (PLOS One, 2025):

Key:
[1] = system: α1β3γ2L GABAA receptors, bulky mutation at α1S270; set-up: key to Mutant-function result, α1+ (M2, M3) S270: +: Mutant-function studies are deemed positive when bulky mutations (mostly tryptophans) at the site significantly reduce positive modulation by anesthetics; -: Negative results are indicated by “–“ symbols; conditions: cited from earlier work
[2] = target: T1, α1β3γ2I242C GABAA receptors (Homo sapiens, UniProt P14867+P18507+P28472, I281C); experiment: Drug protection from pCMBS modification (SCAMP); type: cell-based; set-up: key to SCAMP result, γ2– (M1) I242: +: Mutant-function studies are deemed positive when bulky mutations (mostly tryptophans) at the site significantly reduce positive modulation by anesthetics; -: Negative results are indicated by “–“ symbols; conditions: for SCAMP result, γ2– (M1) I242: results of this study, etomidate cell also cites [9]
T1 construct: expressed in transfected cells; host or cells: Xenopus oocytes injected with capped mRNAs mixed 1α:1β:5γ
Description: (§1) Experiments were performed in ND-96 buffer at room temperature (20–22°C). Oocytes were placed in a low-volume (30µl) flow chamber and impaled with borosilicate microelectrodes filled with 3M KCl (resistance 0.5–3 MΩ) and voltage-clamped at −50 mV (model OC-725C; Warner Instruments, Hamden, CT, USA). Superfusate solutions in ND-96 were delivered at 2 ml/min from glass syringe reservoirs via computer-controlled valves (VC-8; Warner Instruments), a micro-manifold (ALA-VM8; ALA Scientific Instruments, Farmingdale, NY, USA), and PTFE tubing. Currents were digitized at 200 Hz on a computer running ClampEx v8.0 software (Molecular Devices, San Jose, CA, USA). Digitized traces were filtered with a 10-Hz low-pass Bessel function, leak corrected and analyzed for peak amplitude off-line using Clampfit v8 software (Molecular Devices).
(§2) Drug protection from pCMBS modification was assessed under pCMBS exposure conditions that produced approximately half of the maximal modification ratio for each mutant receptor, and a least a value of 3. This approach balanced the magnitude of functional modification signals (smaller with less pCMBS exposure) against the challenge of using a reversibly bound ligand to competitively block an irreversible covalent cysteine-modifying reaction. […] Each oocyte was used in a single SCAMP experiment. […] Etomidate was used as a positive control for anesthetic protection in α1M236C and β3M286C mutants and as a negative control in α1S270C, α1A291C, β3L231C, γ2S301C, γ2I242C, and γ2L246C mutants. R-mTFD-MPAB was used as a positive control in α1S270C, α1A291C, β3L231C, and γ2LS301C mutants and as a negative control in α1M236C and β3M286C mutants. For each cysteine mutant and protective drug combination, five oocytes were studied.
Non-linear least squares fits and statistical analyses were performed in Prism 10.4.0. (GraphPad Software, San Diego, CA, USA). […] Protection (steric inhibition of pCMBS modification) was inferred when anesthetics produced significant reductions in modification ratios relative to control (no anesthetic) values. […]

[3] = system: α1β3γ2L GABAA receptors, bulky mutation at β3N265; set-up: method as in PMID 30696720, PMID 32247113; key: +: Mutant-function studies are deemed positive when bulky mutations (mostly tryptophans) at the site significantly reduce positive modulation by anesthetics; -: Negative results are indicated by “–“ symbols; conditions: cited from earlier work
[4] = system: α1β3γ2L GABAA receptors, bulky mutation at γ2S280; set-up: method as in PMID 30696720, PMID 32247113; key: +: Mutant-function studies are deemed positive when bulky mutations (mostly tryptophans) at the site significantly reduce positive modulation by anesthetics; -: Negative results are indicated by “–“ symbols; conditions: cited from earlier work
[5] = system: α1β3γ2L GABAA receptors, bulky mutation at γ2L246; set-up: key: +: Mutant-function studies are deemed positive when bulky mutations (mostly tryptophans) at the site significantly reduce positive modulation by anesthetics; -: Negative results are indicated by “–“ symbols; conditions: cited from earlier work
[6] = system: α1β3γ2L GABAA receptors, bulky mutation at γ2I242; set-up: key to Mutant-function result, γ2– (M1) I242: +: Mutant-function studies are deemed positive when bulky mutations (mostly tryptophans) at the site significantly reduce positive modulation by anesthetics; -: Negative results are indicated by “–“ symbols; conditions: cited from earlier work
[7] = system: α1β3γ2L GABAA receptors, bulky mutation at β3M286; set-up: method as in PMID 30696720; key: +: Mutant-function studies are deemed positive when bulky mutations (mostly tryptophans) at the site significantly reduce positive modulation by anesthetics; -: Negative results are indicated by “–“ symbols; conditions: cited from earlier work
[8] = system: α1β3γ2L GABAA receptors, bulky mutation at β3M227; set-up: key: +: Mutant-function studies are deemed positive when bulky mutations (mostly tryptophans) at the site significantly reduce positive modulation by anesthetics; -: Negative results are indicated by “–“ symbols; conditions: cited from earlier work
[9] = system: α1β3γ2L GABAA receptors, bulky mutation at α1A291; set-up: method as in PMID 30696720; key: +: Mutant-function studies are deemed positive when bulky mutations (mostly tryptophans) at the site significantly reduce positive modulation by anesthetics; -: Negative results are indicated by “–“ symbols; conditions: cited from earlier work
[10] = target: T2, α1A291Cβ3γ2L GABAA receptors (Homo sapiens, UniProt P14867+P18507+P28472, A318C); experiment: Drug protection from pCMBS modification (SCAMP); type: cell-based; conditions: for modification ratio with anesthetic present, single oocyte example (Fig 2): 3 mM GABA + 10 µM pCMBS for 90 s plus […] etomidate
T2 construct: expressed in transfected cells; host or cells: Xenopus oocytes injected with capped mRNA, 1α:1β:5γ
Description: as §1, §2
Non-linear least squares fits and statistical analyses were performed in Prism 10.4.0. (GraphPad Software, San Diego, CA, USA). […] Protection (steric inhibition of pCMBS modification) was inferred when anesthetics produced significant reductions in modification ratios relative to control (no anesthetic) values. The statistical significance threshold was p < 0.05.

[11] = α1A291Cβ3γ2L, 8 µM R-mTFD-MPAB or 10 µM pTFD-di-iPr-BnOH

T2 sequence (P14867 28-456 A318C): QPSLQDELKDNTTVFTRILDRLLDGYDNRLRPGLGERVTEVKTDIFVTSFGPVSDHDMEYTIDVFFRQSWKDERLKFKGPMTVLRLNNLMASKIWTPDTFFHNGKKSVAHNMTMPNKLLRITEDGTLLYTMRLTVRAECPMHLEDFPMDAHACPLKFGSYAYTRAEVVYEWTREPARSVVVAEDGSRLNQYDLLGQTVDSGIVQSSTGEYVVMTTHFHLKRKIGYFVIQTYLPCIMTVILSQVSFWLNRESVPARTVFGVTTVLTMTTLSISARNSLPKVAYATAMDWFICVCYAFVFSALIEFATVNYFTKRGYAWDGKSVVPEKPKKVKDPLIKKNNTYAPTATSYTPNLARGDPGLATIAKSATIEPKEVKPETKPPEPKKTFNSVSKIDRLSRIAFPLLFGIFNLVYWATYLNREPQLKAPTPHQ
T2 sequence (P28472 26-473): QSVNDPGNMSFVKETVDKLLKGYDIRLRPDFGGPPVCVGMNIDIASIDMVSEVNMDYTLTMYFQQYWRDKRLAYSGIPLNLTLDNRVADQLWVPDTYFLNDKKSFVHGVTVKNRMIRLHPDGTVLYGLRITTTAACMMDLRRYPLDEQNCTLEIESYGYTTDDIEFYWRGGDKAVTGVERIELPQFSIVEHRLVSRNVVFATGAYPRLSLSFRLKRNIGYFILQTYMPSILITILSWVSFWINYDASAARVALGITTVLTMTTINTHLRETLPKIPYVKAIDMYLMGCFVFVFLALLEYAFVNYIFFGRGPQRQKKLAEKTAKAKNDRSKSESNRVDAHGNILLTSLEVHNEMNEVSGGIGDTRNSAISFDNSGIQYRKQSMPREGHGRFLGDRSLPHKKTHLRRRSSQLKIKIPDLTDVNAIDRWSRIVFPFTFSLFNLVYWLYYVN
T2 sequence (P18507 40-475): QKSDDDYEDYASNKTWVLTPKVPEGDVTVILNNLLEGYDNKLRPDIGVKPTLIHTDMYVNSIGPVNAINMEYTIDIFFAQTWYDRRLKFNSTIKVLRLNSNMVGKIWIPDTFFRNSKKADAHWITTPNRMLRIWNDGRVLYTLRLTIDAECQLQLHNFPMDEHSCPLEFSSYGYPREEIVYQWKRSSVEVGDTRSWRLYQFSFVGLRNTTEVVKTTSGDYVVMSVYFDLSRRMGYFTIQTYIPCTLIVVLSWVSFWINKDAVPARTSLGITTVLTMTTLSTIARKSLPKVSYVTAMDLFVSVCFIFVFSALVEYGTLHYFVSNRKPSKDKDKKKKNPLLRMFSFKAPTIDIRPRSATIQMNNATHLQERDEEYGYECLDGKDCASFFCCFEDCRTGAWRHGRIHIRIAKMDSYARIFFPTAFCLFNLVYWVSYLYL
T1 sequence (P14867 28-456): as the sequence (P14867 28-456 A318C) above, with C291A counted along it
T1 sequence (P28472 26-473): as the sequence (P28472 26-473) above
T1 sequence (P18507 40-475 I281C): as the sequence (P18507 40-475) above, with I242C counted along it

Row | Structure (SMILES) | Mutant-function result, α1+ (M2, M3) S270 [1] | SCAMP result, γ2– (M1) I242 [2] | protection from pCMBS modification (significant reduction of modification ratio vs control, p < 0.05) ([2]; γ2I242C (γ–), pCMBS 100 µM x 30 s, […] etomidate or 10 µM pTFD-di-iPr-BnOH, n = 5) | Mutant-function result, β3+ (M2, M3) N265 [3] | Mutant-function result, γ2+ (M2, M3) S280 [4] | Mutant-function result, γ2– (M1) L246 [5] | Mutant-function result, γ2– (M1) I242 [6] | Mutant-function result, β3+ (M2, M3) M286 [7] | Mutant-function result, β3– (M1) M227 [8] | Mutant-function result, α1+ (M2, M3) A291 [9] | modification ratio with anesthetic present, single oocyte example (Fig 2) [10, 11] | effect of mutation on receptor modulation by the anesthetic ([1]; α1S270I mutation) | effect of mutation on receptor modulation by the anesthetic ([6]; γ2I242W mutation) | protection from pCMBS modification (significant reduction of modification ratio vs control, p < 0.05) ([10]; α1A291C (α+), pCMBS 10 µM x 90 s, […] etomidate, 8 µM R-mTFD-MPAB or 10 µM pTFD-di-iPr-BnOH, n = 5) | modification ratio lower than control ([10]; α1A291Cβ3γ2L, single oocyte examples of Fig 2, control modification ratio 4.0)
1 | CCOC(=O)c1cncn1[C@H](C)c1ccccc1 [etomidate, R-etomidate] | -^[13, 15] | -^[9],6 | no protection was inferred | +^[13, 15] | -^[13, 15] | -^[9] | -^[9, 15] | +^[13] | -^[9, 15] | -^[13] | 3.8 |  |  |  | 
2 | CC(C)c1cc(C2(C(F)(F)F)N=N2)cc(C(C)C)c1CO [pTFD-di-iPr-BnOH] | +^[15] | -* |  | -^[15] | -^[15] |  | +^[15] |  | +^[15] |  |  | significantly reduced | significantly reduced |  | 
3 | C=CCC1(c2cccc(C3(C(F)(F)F)N=N3)c2)C(=O)NC(=O)N(C)C1=O (stereo not drawn) [R-mTFD-MPAB, R-5-allyl-1-methyl-5-(m-trifluoromethyl-diazirynylphenyl) barbituric acid] | +^[13, 15] |  |  | -^[13, 15] | +^[13, 15] | -^[9] | -^[9, 15] | -^[13] | +^[9, 15], | +^[13] | 2.1 |  |  | protection was inferred | 47%
